Measurements published in paper PMC6385123, “Design, Synthesis, Anticancer Evaluation and Molecular Modeling of Novel Estrogen Derivatives” (Molecules, 2019).
Where two headings read alike, the source gives them in different places.

What was measured:
MCF-10A cells = test: In vitro cytotoxicity against normal non-tumorigenic cells, MTT assay; format: cell-based; settings: normal non-tumorigenic MCF-10A cells, read-out: IC50 (Mean ± SEM) MCF-10A
Procedure: (§1) MCF-7 (human breast cancer) cells, obtained from Sigma-Aldrich Chemie GmbH, Taufkirchen, Germany, were propagated in RPMI-1640 supplemented with 10% heat inactivated FBS, 2 mM L-glutamine, and 1% standard antibiotic solution. Cells were incubated in a 5% CO2 humidified incubator at 37 °C and passaged bi-weekly. The in vitro anti-proliferative activity of the newly synthesized derivatives was assayed using standard MTT technique. Results were expressed as IC50. Experiments were repeated at least in triplicate, to obtain good reproducibility between replicate wells with standard errors below 10%. Furthermore, the cytotoxic effects of the prepared derivatives were evaluated against normal nonmalignant cells, non-tumorigenic MCF-10A, in order to find out if the synthesized derivatives have toxicity against normal cells. Additionally, results were compared with reference compounds (cisplatin and milaplatin) as positive controls.

MCF-7 cells = test: In vitro cytotoxic activity, MTT assay, MCF-7; format: cell-based, human; settings: MTT assay, MCF-7 cell line, read-out: IC50 (Mean ± SEM) MCF-7
Procedure: as §1

p53 ubiquitination = test: In vivo ubiquitination of p53 (transfected cells); format: cell-based; settings: cells transfected with p53, MDM2, HIS-ubiquitin; exposed 6 h; read-out: IC50 (Mean ± SEM) In Vivo p53 Ubiquitination
Procedure: In vivo ubiquitination of p53 was assayed according to [38] Cells were grown for 24 h (50% confluency) before transfection of 1 µg p53, 4 µg MDM2 and 1 µg HIS-ubiquitin with Gene Juice reagent. Grown for another 20 h, cells were exposed to prepared derivatives or controls for 6 h and MG132 for 4 h, then washed and collected in PBS, where 5% of the solution was kept as an input. The remaining pelleted cells (95% after centrifugation) were lysed in 700 µL of ubiquitin buffer A (6 M guanidinium HCl, 300 mM NaCl, 50 mM phosphate pH 8.0, 100 µg/mL N-ethylmaleimide), and sonicated for 5 min at 20% amplitude. Lysates were incubated overnight with Invitrogen Dynabeads His-Tag matrix and washed once with ubiquitin buffers A, B, C and phosphate buffered saline (ubiquitin buffer B: Mix ubiquitin buffer A and ubiquitin buffer C 1:1; ubiquitin buffer C: 300 mM NaCl, 50 mM phosphate pH 8.0, 100 µg/mL N-ethylmaleimide). The washed lysates were resolved by 8% sodium dodecyl sulfate–polyacrylamide gel electrophoresis, followed by immunoblotting with a p53 (DO-1) antibody.

VEGFR-2 = VEGFR-2 (Homo sapiens, UniProt P35968); test: VEGFR-2 kinase inhibition assay; format: biochemical; settings: 8 μM ATP, poly(Glu,Tyr)4:1 substrate; read-out: IC50 (Mean ± SEM) VEGFR-2
Chain of VEGFR-2 (P35968 20-1356): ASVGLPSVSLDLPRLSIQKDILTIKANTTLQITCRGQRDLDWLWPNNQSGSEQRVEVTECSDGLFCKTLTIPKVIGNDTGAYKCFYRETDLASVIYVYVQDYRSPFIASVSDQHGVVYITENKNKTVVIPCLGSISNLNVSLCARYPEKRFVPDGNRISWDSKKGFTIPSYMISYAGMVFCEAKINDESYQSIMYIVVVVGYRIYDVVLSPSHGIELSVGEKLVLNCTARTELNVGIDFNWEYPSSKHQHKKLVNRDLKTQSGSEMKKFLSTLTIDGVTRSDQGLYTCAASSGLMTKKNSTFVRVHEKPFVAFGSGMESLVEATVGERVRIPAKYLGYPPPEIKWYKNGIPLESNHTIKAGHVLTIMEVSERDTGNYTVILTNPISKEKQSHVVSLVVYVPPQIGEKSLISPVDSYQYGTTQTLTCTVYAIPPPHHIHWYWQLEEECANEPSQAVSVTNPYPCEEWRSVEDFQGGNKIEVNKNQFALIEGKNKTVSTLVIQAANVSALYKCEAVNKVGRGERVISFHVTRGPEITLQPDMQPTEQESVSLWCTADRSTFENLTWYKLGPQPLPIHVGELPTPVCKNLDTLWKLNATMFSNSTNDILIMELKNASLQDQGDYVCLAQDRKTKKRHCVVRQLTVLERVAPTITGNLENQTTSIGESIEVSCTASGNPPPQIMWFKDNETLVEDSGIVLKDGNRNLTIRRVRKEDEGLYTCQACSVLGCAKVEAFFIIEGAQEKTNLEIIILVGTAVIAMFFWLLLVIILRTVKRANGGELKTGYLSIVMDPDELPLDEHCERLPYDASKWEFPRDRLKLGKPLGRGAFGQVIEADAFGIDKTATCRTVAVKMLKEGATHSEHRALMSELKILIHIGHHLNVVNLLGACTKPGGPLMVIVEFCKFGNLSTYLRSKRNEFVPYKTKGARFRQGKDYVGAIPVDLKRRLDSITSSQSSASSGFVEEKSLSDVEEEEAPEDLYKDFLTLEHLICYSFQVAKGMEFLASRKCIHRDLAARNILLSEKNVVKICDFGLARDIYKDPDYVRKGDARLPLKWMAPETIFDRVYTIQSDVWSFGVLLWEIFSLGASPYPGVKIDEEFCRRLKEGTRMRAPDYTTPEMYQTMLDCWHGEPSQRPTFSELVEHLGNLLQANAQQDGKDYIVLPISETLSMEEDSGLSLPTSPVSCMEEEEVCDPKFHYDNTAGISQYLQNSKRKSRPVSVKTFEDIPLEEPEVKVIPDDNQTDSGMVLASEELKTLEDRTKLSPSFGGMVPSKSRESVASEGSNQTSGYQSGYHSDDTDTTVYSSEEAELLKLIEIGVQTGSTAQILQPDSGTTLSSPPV
Procedure: (§2) The EGFR and VEGFR-2 kinase activities were assayed as previously described. The assay was performed in 96-well plates pre-coated with 20 μg mL^−1 poly (Glu, Tyr)4:1 (Sigma-Aldrich Chemie GmbH, Taufkirchen, Germany) as a substrate. In each well, 85 μL of an 8 μM ATP solution and 10 μL of the compound were added at varying concentrations. Experiments were repeated three times. Reactions started with 5 μL of different kinases and incubation for 1 h at 37 °C. Plates were 3X-washed with PBS/0.1% Tween 20. Accordingly, 100 μL of anti-phosphotyrosine (PY99; 1:500 dilutions) antibody was added, and plates were incubated for another hour at room temperature. Plates were then 3X-washed, and addition of goat anti-mouse IgG horseradish peroxidase (100 μL; 1:2000 dilution) diluted in T-PBS containing 5 mg mL^−1 BSA followed. Plates were further incubated at room temperature for another hour, and then 3X-washed. Finally, 100 μL (developing solution, 0.03% H2O2, 2 mg mL^−1 o-phenylenediamine/citrate buffer, 0.1 M, pH 5.5) was added and incubation continued until color development. The reaction was stopped by 100 μL of 2M H2SO4, and the absorption was measured at 492 nm using a multiwell spectrophotometer (VERSAmax™). The inhibition rate (%) was calculated using the equation:Inhibition rate (%) = [1 − (A492/A492Control)] × 100%(1)

EGFR = EGFR (Homo sapiens, UniProt P00533); test: EGFR kinase inhibition assay; format: biochemical; settings: 8 μM ATP, poly(Glu,Tyr)4:1 substrate; read-out: IC50 (Mean ± SEM) EGFR
Chain of EGFR (P00533 25-1210): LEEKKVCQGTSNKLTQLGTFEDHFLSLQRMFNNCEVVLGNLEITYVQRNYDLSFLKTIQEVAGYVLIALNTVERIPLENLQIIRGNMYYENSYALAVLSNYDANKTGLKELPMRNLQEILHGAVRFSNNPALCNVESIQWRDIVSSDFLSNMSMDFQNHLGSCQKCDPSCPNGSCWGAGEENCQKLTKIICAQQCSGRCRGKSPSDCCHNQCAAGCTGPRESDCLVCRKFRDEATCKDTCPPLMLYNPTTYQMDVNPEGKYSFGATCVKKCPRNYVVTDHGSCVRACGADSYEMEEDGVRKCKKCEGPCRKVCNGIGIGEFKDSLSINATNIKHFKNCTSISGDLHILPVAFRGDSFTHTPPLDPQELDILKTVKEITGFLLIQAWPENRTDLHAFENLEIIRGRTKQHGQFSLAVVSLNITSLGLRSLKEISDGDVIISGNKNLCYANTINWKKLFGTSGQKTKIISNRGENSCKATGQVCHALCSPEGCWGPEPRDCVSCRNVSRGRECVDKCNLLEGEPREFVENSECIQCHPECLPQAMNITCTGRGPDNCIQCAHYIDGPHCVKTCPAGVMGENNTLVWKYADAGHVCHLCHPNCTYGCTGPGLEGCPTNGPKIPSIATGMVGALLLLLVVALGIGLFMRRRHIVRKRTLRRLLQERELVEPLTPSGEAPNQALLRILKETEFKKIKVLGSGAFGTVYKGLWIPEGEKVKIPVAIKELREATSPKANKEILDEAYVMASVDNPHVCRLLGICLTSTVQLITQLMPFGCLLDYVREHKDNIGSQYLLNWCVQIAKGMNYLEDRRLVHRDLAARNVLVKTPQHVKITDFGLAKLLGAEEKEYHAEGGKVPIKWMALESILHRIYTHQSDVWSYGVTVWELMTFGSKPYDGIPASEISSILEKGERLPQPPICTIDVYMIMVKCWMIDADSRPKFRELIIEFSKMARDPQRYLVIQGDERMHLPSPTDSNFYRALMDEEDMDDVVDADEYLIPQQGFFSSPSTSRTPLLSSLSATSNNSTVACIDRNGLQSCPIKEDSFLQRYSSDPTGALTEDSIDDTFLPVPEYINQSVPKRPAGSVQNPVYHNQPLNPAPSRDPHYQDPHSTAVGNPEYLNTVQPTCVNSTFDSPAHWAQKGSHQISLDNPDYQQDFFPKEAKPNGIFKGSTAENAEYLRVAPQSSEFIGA
Procedure: as §2

[1] = molecular target: T1, p53 ubiquitination (GST-tagged HDM2) (Homo sapiens, UniProt Q00987); test: In vitro p53 ubiquitination assay; format: biochemical; settings: GST-tagged HDM2, p53, ubiquitin, E1 and E2 (UbcH5B); read-out: IC50 (Mean ± SEM) In Vitro p53 Ubiquitination
T1 construct: GS4b-MDM2 RING beads were prepared as above and were used in place of the full-length MDM2; made in house; host or cells: Escherichia coli BL21
T1 sequence (Q00987 whole entry): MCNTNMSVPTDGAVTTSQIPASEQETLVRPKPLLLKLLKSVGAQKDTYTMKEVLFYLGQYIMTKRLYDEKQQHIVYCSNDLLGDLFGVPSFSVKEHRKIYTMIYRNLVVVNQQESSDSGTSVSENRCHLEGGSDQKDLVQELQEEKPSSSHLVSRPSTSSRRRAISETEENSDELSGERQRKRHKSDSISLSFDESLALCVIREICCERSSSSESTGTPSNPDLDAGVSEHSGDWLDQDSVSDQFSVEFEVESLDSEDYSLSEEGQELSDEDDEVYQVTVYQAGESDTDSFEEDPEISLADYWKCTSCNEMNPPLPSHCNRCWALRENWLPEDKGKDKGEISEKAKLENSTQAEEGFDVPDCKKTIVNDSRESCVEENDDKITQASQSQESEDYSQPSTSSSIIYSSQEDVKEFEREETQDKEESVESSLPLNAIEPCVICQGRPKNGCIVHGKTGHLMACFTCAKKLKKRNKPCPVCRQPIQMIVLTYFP
Procedure: Different prepared derivatives were evaluated for their inhibitory potential against p53 ubiquitination. The method is based on incubating different compounds with GST-tagged HDM2, immobilized on glutathione-Sepharose, p53, ubiquitin, E1 and E2 (UbcH5B) ligases. The buffer contained ATP as detailed by Gomha and Abdelaziz. The reaction products were then resolved by SDSPAGE and p53 ubiquitination and were quantified by Western blotting using an anti-p53 antibody.
Briefly, rGSH-S-transferase-tagged MDM2 (GST-MDM2) was expressed in Escherichia coli BL21 cells using 1 mM isopropyl-thio-b-D-galactoside for 3 h. The enzyme was then purified on glutathione-sepharose beads (Amersham). Beads were washed with Tris (pH 7.5). The reaction contained fluorescent ubiquitin (5 µg; Invitrogen), 50 ng mammalian E1 (Enzo), 200 ng human rUbcH5B E2 (Enzo), 200 ng His-p53 (Enzo) and buffer [50 mM Tris pH 8,2 mM dithiothreitol, 5 mM MgCl2, 2 mM adenosine triphosphate (ATP)]. The MPD-compound or control mixture was dose-titrated onto GS4b-MDM2 beads. Incubation at 37 °C was followed by shaking (1200 rpm, 1 h). The reaction was terminated with 3× sodium dodecyl sulfate sample buffer. Finally, unbound fluorescent ubiquitin was drained and the total fluorescent ubiquitin signal was measured using a plate reader (Safire).
The procedure was performed similar to the aforementioned protocol except that 5 µg unlabeled ubiquitin (Enzo) was used. Following incubation, resolving of reaction products was performed using sodium dodecyl sulfate PGE. Analysis was done by western blotting using anti-p53 DO-1. For the MDM2 RING auto-ubiquitination assay, GS4b-MDM2 RING beads were prepared as above and were used in place of the full-length MDM2.

Row | Compound | IC50 (MCF-10A cells) [µM] | IC50 (MCF-7 cells) [µM] | melting point [°C] | IC50 (p53 ubiquitination) [µM] | IC50 (MCF-10A cells; Homo sapiens) [µM] | IC50 (VEGFR-2) [µM] | IC50 (MCF-7 cells; Homo sapiens, MCF7) [µM] | IC50 (EGFR) [µM] | IC50 [1] [µM]
1 | N.N.[Cl][Pt][Cl] [Cisplatin, reference compound] | 9.55 ± 0.54 | 13.34 ± 0.11 |  |  |  |  |  |  | 
2 | CC12CCC3c4ccc(O)cc4CCC3C1CC1=C2NC(=O)NC1c1ccccc1Cl (centres unmarked) [Compound 3a, 2′-Oxo-6′-(2-chlorophenyl)-estra-1(10),2,4,16(17)-tetraien-[17,16-d]pyrimidino-3-ol] |  |  | 266 to 268 | 0.6 ± 0.0086 | 401 ± 11.6 | 0.047 ± 0.003 | 35.7 ± 0.4 | 0.127 ± 0.0037 | 47.6 ± 0.6
3 | CC12CCC3c4ccc(O)cc4CCC3C1CC1=C2NC(=O)NC1c1ccc(Cl)cc1 (centres unmarked) [Compound 3b, Oxo-6′-(4-chlorophenyl)-estra-1(10),2,4,16(17)-tetraien-[17,16-d]pyrimidino-3-ols] |  |  | 308 to 310 | 0.63 ± 0.0095 | 422 ± 13.8 | 0.048 ± 0.0014 | 38.6 ± 0.87 | 0.155 ± 0.0051 | 53.6 ± 0.78
4 | CC12CCC3c4ccc(O)cc4CCC3C1CC1=C2NC(=S)NC1c1ccccc1Cl (centres unmarked) [Compound 4a, 2′-Thione-6′-(2-chlorophenyl)-estra-1(10),2,4,16(17)-tetraien-[17,16-d]pyrimidine-3-ol] |  |  | 290 to 292 | 0.45 ± 0.0085 | 302 ± 8.86 | 0.037 ± 0.0026 | 28.64 ± 0.28 | 0.095 ± 0.0028 | 36.6 ± 0.58
5 | CC12CCC3c4ccc(O)cc4CCC3C1CC1=C2NC(=S)NC1c1ccc(Cl)cc1 (centres unmarked) [Compound 4b, 2’-Thione-6’-(4-chlorophenyl)-estra-1(10),2,4,16(17)-tetraien-[17,16-d]-pyrimidine-3-ol] |  |  | 333 to 335 | 0.57 ± 0.0097 | 311 ± 9.59 | 0.043 ± 0.0018 | 31.8 ± 0.39 | 0.098 ± 0.0009 | 45.8 ± 0.49
6 | CC12CCC3c4ccc(O)cc4CCC3C1CC1=C2NC(=N)NC1c1ccc(Cl)cc1 (centres unmarked) [Compound 5b, 2′-Imino-6′-(4-chlorophenyl)-estra-1(10),2,4,16(17)-tetraien-[17,16-d]pyrimidino-3-ol] |  |  | 326 to 328 | 0.31 ± 0.0053 | 235 ± 7.76 | 0.029 ± 0.0003 | 22.5 ± 0.24 | 0.088 ± 0.0013 | 27.6 ± 0.34
7 | CC12CCC3c4ccc(O)cc4CCC3C1CC1=C2NC(=NC#N)NC1c1ccccc1Cl (centres unmarked) [Compound 6a, 2′-Cyanoimino-6′-(2-chlorophenyl)-estra-1(10),2,4,16(17)-tetraien-[17,16-d]pyrimidino-3-ol] |  |  | 223 | 0.32 ± 0.0063 | 244 ± 7.78 | 0.031 ± 0.0041 | 24.57 ± 0.16 | 0.09 ± 0.0006 | 28.47 ± 0.25
8 | CC12CCC3c4ccc(O)cc4CCC3C1CC1=C2NC(=NC#N)NC1c1ccc(Cl)cc1 (centres unmarked) [Compound 6b, 2′-Cyanoimino-6′-(4-chlorophenyl)-estra-1(10),2,4,16(17)-tetraien-[17,16-d]-pyrimidino-3-ol] |  |  | 282 to 284 | 0.42 ± 0.0074 | 277 ± 8.23 | 0.033 ± 0.001 | 26.46 ± 0.17 | 0.091 ± 0.0025 | 29.5 ± 0.36
9 | CC12CCC3c4ccc(O)cc4CCC3C1CC1C2=NN(C(N)=O)C1c1ccccc1Cl (centres unmarked) [Compound 7a, 1-Carbamoyl-1′H-(2’H)-5′-(2-chlorophenyl)-estra-1(10),2,4-trien-[17,16-c]pyrazoline-3-ol] |  |  | 298 to 300 | 0.86 ± 0.0068 | 466 ± 17.3 | 0.055 ± 0.0013 | 41.1 ± 0.84 | 0.188 ± 0.0016 | 66.7 ± 0.86
10 | CC12CCC3c4ccc(O)cc4CCC3C1CC1C2=NN(C(N)=O)C1c1ccc(Cl)cc1 (centres unmarked) [Compound 7b, 1-Carbamoyl-1’H-(2’H)-5’-(4-chlorophenyl)-estra-1(10),2,4-trien-[17,16-c]pyrazoline-3-ol] |  |  | 248 to 250 | 0.89 ± 0.0099 | 512 ± 16.6 | 0.057 ± 0.0005 | 46.2 ± 0.93 | 0.227 ± 0.0004 | 77.6 ± 0.97
11 | CC12CCC3c4ccc(O)cc4CCC3C1CC1C2=NN(C(N)=S)C1c1ccccc1Cl (centres unmarked) [Compound 8a, 1-Thiocarbamoyl-1′H-(2′H)-5′-(2-chlorophenyl)-estra-1(10),2,4-trien-[17,16-c]pyrazoline-3-ol] |  |  | 294 to 296 | 0.74 ± 0.0087 | 435 ± 14.6 | 0.051 ± 0.0017 | 39.5 ± 0.75 | 0.166 ± 0.0028 | 55.4 ± 0.69
12 | CC12CCC3c4ccc(O)cc4CCC3C1CC1C2=NN(C(N)=S)C1c1ccc(Cl)cc1 (centres unmarked) [Compound 8b, 1-Thiocarbamoyl-1′H-(2′H)-5′-(4-chlorophenyl)-estra-1(10),2,4-trien-[17,16-c]pyrazoline-3-ol] |  |  | 252 to 256 | 0.82 ± 0.0078 | 446 ± 15.4 | 0.053 ± 0.0023 | 40.4 ± 0.95 | 0.177 ± 0.0041 | 64.6 ± 0.78
13 | Oc1cc(O)c2cc(O)c(-c3cc(O)c(O)c(O)c3)[o+]c2c1 [Delphinidin, reference compound] |  |  |  |  |  | 5.09 ± 0.0012 |  | 6.27 ± 0.00076 | 
14 | Milaplatin [reference compound] | 18.3 ± 0.34 | 18.43 ± 0.13 |  |  |  |  |  |  | 
